Assay results as given in ChEMBL document CHEMBL4321792, “Discovery of 4-Methylquinazoline Based PI3K Inhibitors for the Potential Treatment of Idiopathic Pulmonary Fibrosis” (J Med Chem, 2019).
Activity calls are given as the source filed them. The calls are words filed in the database; no cut-off is given here.

How the values were obtained:
Mus musculus [1] = assay: Antifibrotic activity in bleomycin-induced C57BL/6 mouse model of pulmonary fibrosis assessed as reduction in respiratory system elastance at 1 mg/kg, po administered once daily for 18 days starting from 10 days post-bleomycin challenge and measured post last dose; assay type: functional, organism-based
Mus musculus [2] = assay: Antifibrotic activity in bleomycin-induced C57BL/6 mouse model of pulmonary fibrosis assessed as reduction in respiratory system compliance at 1 mg/kg, po administered once daily for 18 days starting from 10 days post-bleomycin challenge and measured post last dose; assay type: functional, organism-based
[3] = Volume of distribution at steady state in ICR mouse at 0.5 mg/kg, iv by LC-MS/SM analysis; assay type: ADME, organism-based; settings: in vivo, read-out: Vdss
Mus musculus [4] = organism: Mus musculus; assay: Inhibition of class 1 PI3K in mouse Mlg2908 cells assessed as reduction in AKT phosphorylation at S473 residue measured after 3 hrs by Western blot analysis; assay type: cell-based
[5] = Therapeutic index, ratio of MTD in po dosed C57BL/6 mouse to compound effect for antifibrotic activity in bleomycin-induced C57BL/6 mouse model of pulmonary fibrosis; assay type: toxicity, organism-based; settings: in vivo, read-out: TI
Mus musculus [6] = assay: Antifibrotic activity in bleomycin-induced C57BL/6 mouse model of pulmonary fibrosis assessed as reduction in inspiratory capacity at 1 mg/kg, po administered once daily for 18 days starting from 10 days post-bleomycin challenge and measured post last dose; assay type: functional, organism-based
Mus musculus [7] = assay: (§1) Antifibrotic activity in bleomycin-induced C57BL/6 mouse model of pulmonary fibrosis assessed as reduction in lung hydroxyproline level at 1 mg/kg, po administered once daily for 18 days starting from 10 days post-bleomycin challenge and measured post last dose; assay type: functional, organism-based
[8] = target: Phosphatidylinositol 4,5-bisphosphate 3-kinase catalytic subunit alpha isoform (Homo sapiens) (UniProt P42336); assay: Binding affinity to wild-type human partial length PIK3CA (R108 to N1068 residues) expressed in mammalian expression system assessed as residual binding level at 1 uM by kinomescan assay relative to control
Mus musculus [9] = organism: Mus musculus; assay: Inhibition of class 1 PI3K in mouse Mlg2908 cells assessed as reduction in S6RP phosphorylation measured after 3 hrs by Western blot analysis; assay type: cell-based
[10] = Toxicity in po dosed C57BL/6 mouse administered once daily via gavage for 7 days measured post-last dose; assay type: organism-based; settings: in vivo
[11] = Toxicity in po dosed C57BL/6 mouse administered as single dose via gavage measured up to 7 days; assay type: organism-based; settings: in vivo
[12] = AUC (0 to infinity) in ICR mouse at 5 mg/kg, po by LC-MS/SM analysis; assay type: ADME, organism-based; parameters: dose 5 mg/kg, route oral, time infinity; settings: in vivo
Mus musculus [13] = assay: (§2) Antifibrotic activity in bleomycin-induced C57BL/6 mouse model of pulmonary fibrosis assessed as reduction in lung damage at 1 mg/kg, po administered once daily for 18 days starting from 10 days post-bleomycin challenge and measured post last dose by H and E staining-based histopathological analysis; assay type: functional, organism-based
[14] = Antifibrotic activity against mouse Mlg2908 cells assessed as reduction in cell viability measured after 72 hrs by MTT assay; assay type: functional, cell-based
[15] = target: Phosphatidylinositol 4-phosphate 3-kinase C2 domain-containing subunit beta (Homo sapiens) (UniProt O00750); assay: Binding affinity to wild-type human partial length PIK3C2B (M1 to L1634 residues) expressed in mammalian expression system assessed as residual binding level at 1 uM by kinomescan assay relative to control
[16] = Half life in ICR mouse at 5 mg/kg, po by LC-MS/SM analysis; assay type: ADME, organism-based; settings: in vivo
[17] = target: T1, Phosphatidylinositol 4,5-bisphosphate 3-kinase catalytic subunit gamma isoform (Homo sapiens, UniProt P48736); assay: Inhibition of recombinant human N-terminal His-tagged full-length p120gamma expressed in Sf9 insect cells using PIP2 as substrate by ADP-glo assay
Target sequence in this assay (P48736 whole entry, canonical isoform): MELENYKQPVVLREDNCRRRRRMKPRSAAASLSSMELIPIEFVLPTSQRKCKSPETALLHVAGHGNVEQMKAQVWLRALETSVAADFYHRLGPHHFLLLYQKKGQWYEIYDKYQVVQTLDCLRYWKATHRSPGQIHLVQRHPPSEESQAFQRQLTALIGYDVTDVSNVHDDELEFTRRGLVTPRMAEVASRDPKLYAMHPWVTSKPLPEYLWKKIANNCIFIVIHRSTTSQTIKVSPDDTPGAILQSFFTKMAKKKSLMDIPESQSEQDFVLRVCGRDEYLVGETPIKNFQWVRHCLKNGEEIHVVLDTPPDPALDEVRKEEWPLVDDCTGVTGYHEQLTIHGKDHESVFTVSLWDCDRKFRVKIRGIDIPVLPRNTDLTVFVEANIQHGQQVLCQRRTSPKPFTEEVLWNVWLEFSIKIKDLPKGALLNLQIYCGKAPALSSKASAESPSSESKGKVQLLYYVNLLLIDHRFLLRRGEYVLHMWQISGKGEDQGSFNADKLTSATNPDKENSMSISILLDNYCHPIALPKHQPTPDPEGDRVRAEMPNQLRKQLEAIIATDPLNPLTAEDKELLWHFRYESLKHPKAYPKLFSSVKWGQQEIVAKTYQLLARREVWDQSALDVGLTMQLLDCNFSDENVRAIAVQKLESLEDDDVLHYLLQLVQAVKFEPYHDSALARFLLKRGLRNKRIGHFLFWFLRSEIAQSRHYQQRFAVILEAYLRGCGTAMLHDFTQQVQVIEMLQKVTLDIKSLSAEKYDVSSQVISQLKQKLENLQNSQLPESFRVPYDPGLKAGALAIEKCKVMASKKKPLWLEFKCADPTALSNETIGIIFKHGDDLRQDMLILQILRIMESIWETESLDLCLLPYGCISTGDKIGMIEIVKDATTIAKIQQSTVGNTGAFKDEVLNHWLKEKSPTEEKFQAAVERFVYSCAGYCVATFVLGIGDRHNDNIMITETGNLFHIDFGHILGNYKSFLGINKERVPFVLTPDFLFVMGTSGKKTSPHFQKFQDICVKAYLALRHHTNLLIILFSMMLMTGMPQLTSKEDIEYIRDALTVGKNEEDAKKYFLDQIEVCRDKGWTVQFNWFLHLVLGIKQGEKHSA

[18] = Apparent permeability across apical to basolateral side in human Caco2 cells measured after 90 mins by LC-MS/MS analysis; settings: Caco-2
[19] = Clearance in ICR mouse at 0.5 mg/kg, iv by LC-MS/SM analysis; assay type: ADME, organism-based; settings: in vivo
[20] = Half life in ICR mouse at 0.5 mg/kg, iv by LC-MS/SM analysis; assay type: ADME, organism-based; settings: in vivo
PI3K p110 beta/p85 alpha = PI3K p110 beta/p85 alpha (Homo sapiens, UniProt P42338); assay: Inhibition of recombinant human N-terminal FLAG-tagged full-length p110beta/human p85alpha expressed in Sf9 insect cells using PIP2 as substrate by ADP-glo assay
Mus musculus [21] = assay: as §2, with “collagen fiber deposition” for “lung damage”, “Masson” for “H and E”; assay type: functional, organism-based
Mus musculus [22] = assay: as §1, with “alpha-SMA” for “hydroxyproline”, “dose by immunostaining-based histopathological analysis” for “dose”; assay type: functional, organism-based
[23] = target: PI3-kinase p110-delta/p85-alpha (Homo sapiens, UniProt O00329); assay: Inhibition of recombinant human N-terminal GST-tagged full-length p110delta/human p85alpha expressed in Sf9 insect cells using PIP2 as substrate by ADP-glo assay
[24] = Oral bioavailability in ICR mouse at 5 mg/kg by LC-MS/SM analysis; assay type: ADME, organism-based; settings: in vivo
Mus musculus [25] = organism: Mus musculus; assay: Inhibition of class 1 PI3K in mouse Mlg2908 cells assessed as reduction in AKT phosphorylation at T308 residue measured after 3 hrs by Western blot analysis; assay type: cell-based
Mus musculus [26] = organism: Mus musculus; assay: Inhibition of class 1 PI3K in mouse Mlg2908 cells assessed as reduction in p70S6K phosphorylation measured after 3 hrs by Western blot analysis; assay type: cell-based
[27] = Apparent permeability across basolateral to apical side in human Caco2 cells measured after 90 mins by LC-MS/MS analysis; settings: Caco-2
[28] = target: T1, Phosphatidylinositol 4,5-bisphosphate 3-kinase catalytic subunit gamma isoform; assay: Binding affinity to wild-type human partial length PIK3CG (S144 to A1102 residues) expressed in mammalian expression system assessed as residual binding level at 1 uM by kinomescan assay relative to control
Target sequence in this assay (P48736 whole entry, looked up, canonical isoform): as the sequence (P48736 whole entry, canonical isoform) above

Mus musculus [29] = assay: Antifibrotic activity in bleomycin-induced C57BL/6 mouse model of pulmonary fibrosis assessed as reduction in respiratory system resistance at 1 mg/kg, po administered once daily for 18 days starting from 10 days post-bleomycin challenge and measured post last dose; assay type: functional, organism-based
[30] = target: PI3-kinase p110-alpha/p85-alpha (Homo sapiens, UniProt P42336); assay: Inhibition of recombinant human N-terminal FLAG-tagged full-length p110alpha/human p85alpha expressed in Sf9 insect cells using PIP2 as substrate by kinase-glo assay
Mus musculus [31] = assay: Antifibrotic activity in bleomycin-induced C57BL/6 mouse model of pulmonary fibrosis assessed as reduction in lung fibronectin level at 1 mg/kg, po administered once daily for 18 days starting from 10 days post-bleomycin challenge and measured post last dose by Western blot analysis; assay type: functional, organism-based
[32] = AUC (0 to infinity) in ICR mouse at 0.5 mg/kg, iv by LC-MS/SM analysis; assay type: ADME, organism-based; parameters: dose 0.5 mg/kg, time infinity, route intravenous; settings: in vivo
[33] = Dose normalized AUC in ICR mouse at 5 mg/kg, po by LC-MS/SM analysis; assay type: ADME, organism-based; settings: in vivo
[34] = Cmax in ICR mouse at 5 mg/kg, po by LC-MS/SM analysis; assay type: ADME, organism-based; parameters: dose 5 mg/kg, route oral; settings: in vivo
Mus musculus [35] = assay: Antifibrotic activity in bleomycin-induced C57BL/6 mouse model of pulmonary fibrosis assessed as reduction in lung index at 1 mg/kg, po administered once daily for 18 days starting from 10 days post-bleomycin challenge and measured post last dose; assay type: functional, organism-based

PI3-kinase p110-alpha/p85-alpha, sequence (P27986 whole entry): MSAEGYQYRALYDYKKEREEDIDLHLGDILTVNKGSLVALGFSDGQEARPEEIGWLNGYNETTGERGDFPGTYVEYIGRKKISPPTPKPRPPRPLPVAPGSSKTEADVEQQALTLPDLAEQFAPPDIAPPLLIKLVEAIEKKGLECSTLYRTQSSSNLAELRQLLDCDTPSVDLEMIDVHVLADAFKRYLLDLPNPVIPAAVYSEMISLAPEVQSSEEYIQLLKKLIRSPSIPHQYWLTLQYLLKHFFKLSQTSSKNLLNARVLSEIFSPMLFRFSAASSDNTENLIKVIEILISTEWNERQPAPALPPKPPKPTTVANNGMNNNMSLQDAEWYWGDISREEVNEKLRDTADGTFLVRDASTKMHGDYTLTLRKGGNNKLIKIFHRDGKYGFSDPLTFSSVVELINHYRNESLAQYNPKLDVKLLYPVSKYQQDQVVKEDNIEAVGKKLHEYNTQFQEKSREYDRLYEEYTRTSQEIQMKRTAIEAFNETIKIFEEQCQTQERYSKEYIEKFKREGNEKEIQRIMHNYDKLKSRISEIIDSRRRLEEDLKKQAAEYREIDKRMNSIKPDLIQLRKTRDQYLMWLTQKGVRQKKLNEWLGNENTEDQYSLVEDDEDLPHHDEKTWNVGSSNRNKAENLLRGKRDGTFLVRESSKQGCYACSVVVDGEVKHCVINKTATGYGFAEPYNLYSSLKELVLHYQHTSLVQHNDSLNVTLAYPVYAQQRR
PI3-kinase p110-alpha/p85-alpha, sequence (P42336 whole entry): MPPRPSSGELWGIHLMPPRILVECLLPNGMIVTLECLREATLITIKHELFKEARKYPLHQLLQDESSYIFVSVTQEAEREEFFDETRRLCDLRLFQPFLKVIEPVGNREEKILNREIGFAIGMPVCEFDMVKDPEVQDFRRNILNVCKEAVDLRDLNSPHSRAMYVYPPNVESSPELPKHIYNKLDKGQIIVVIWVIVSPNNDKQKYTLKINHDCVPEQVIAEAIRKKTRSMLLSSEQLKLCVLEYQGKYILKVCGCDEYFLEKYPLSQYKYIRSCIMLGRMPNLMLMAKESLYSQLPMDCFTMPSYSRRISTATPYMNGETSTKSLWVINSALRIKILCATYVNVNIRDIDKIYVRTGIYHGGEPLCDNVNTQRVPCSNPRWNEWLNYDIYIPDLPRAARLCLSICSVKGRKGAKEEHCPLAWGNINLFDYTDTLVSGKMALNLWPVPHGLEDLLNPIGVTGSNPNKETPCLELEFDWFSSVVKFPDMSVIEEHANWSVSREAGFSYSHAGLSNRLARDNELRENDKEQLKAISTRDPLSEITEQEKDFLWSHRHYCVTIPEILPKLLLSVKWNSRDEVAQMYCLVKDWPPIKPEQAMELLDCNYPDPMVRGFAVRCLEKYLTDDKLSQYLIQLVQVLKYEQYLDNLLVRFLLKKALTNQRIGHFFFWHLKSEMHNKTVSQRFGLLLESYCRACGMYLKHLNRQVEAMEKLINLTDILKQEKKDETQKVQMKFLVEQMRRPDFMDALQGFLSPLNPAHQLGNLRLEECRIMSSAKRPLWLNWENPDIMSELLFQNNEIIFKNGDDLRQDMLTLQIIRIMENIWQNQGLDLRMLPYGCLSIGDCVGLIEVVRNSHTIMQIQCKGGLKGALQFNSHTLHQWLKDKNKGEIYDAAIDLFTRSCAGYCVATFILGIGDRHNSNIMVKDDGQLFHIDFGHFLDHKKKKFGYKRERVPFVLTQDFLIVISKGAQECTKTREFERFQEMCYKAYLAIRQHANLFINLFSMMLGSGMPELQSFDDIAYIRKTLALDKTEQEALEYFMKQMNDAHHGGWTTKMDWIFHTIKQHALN
PI3K p110 beta/p85 alpha, sequence (P27986 whole entry): as the sequence (P27986 whole entry) above
PI3K p110 beta/p85 alpha, sequence (P42338 whole entry): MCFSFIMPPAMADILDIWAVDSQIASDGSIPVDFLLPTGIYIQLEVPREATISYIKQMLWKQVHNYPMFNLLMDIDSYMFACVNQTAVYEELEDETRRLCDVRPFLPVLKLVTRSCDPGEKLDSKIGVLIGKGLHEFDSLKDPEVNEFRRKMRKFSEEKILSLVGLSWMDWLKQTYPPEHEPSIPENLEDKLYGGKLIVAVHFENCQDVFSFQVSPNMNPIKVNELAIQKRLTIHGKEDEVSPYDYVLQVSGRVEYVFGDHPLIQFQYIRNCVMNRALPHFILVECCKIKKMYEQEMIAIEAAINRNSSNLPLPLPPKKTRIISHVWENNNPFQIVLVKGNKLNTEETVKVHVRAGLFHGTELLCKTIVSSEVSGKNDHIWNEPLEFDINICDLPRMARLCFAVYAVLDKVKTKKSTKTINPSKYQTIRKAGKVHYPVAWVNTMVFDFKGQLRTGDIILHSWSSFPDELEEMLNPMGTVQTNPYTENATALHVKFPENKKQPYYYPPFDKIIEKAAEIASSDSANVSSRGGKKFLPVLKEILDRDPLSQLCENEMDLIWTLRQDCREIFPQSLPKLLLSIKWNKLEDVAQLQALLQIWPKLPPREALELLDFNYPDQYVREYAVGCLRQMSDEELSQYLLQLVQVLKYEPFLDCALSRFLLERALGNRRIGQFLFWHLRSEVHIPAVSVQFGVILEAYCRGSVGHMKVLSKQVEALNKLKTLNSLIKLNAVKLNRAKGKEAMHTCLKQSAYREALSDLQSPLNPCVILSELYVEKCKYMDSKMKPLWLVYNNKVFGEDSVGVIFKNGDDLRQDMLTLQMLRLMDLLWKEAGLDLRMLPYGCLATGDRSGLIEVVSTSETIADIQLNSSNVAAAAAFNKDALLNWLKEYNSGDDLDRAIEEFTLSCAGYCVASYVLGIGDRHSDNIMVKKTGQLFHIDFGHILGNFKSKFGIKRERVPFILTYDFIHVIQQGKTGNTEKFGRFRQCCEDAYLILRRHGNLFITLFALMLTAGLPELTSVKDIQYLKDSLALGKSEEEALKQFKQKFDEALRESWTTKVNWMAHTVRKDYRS
Phosphatidylinositol 4,5-bisphosphate 3-kinase catalytic subunit alpha isoform (Homo sapiens), sequence (P42336 whole entry, the tested form may be a part, canonical isoform): as the sequence (P42336 whole entry) above

COc1ncc(-c2cc(OCC3(C)COC3)c3ncnc(C)c3c2)cc1NS(=O)(=O)c1ccc(F)cc1F
Activity (Mus musculus [1]): Active | Activity (Mus musculus [2]): Active | Vd [3]: 0.733 L/kg | inhibition (Mus musculus [4]): Dose-dependent effect | selectivity ratio [5]: > 10 | Activity (Mus musculus [6]): Active | Activity (Mus musculus [7]): Active | Activity [8]: 0% | inhibition (Mus musculus [9]): Dose-dependent effect | MTD at 168 h [10]: > 10 mg/kg | MTD at 168 h [11]: > 30 mg/kg | AUC(0-inf) [12]: 3670 ng·h/mL | Activity (Mus musculus [13]): Active | IC50 [14]: 5 nM | Activity [15]: 0% | half-life [16]: 4.98 h | IC50 [17]: 1.6 nM | Papp A→B at 1.5 h [18]: 46 ×10⁻⁶ cm/s | clearance [19]: 12.8 mL/min/kg | half-life [20]: 0.66 h | IC50 (PI3K p110 beta/p85 alpha): 0.7 nM | Activity (Mus musculus [21]): Active | Activity (Mus musculus [22]): Active | IC50 [23]: 1.1 nM | bioavailability [24]: 53.1% | inhibition (Mus musculus [25]): Dose-dependent effect | inhibition (Mus musculus [26]): Dose-dependent effect | Papp B→A at 1.5 h [27]: 36 ×10⁻⁶ cm/s | Activity [28]: 0% | Activity (Mus musculus [29]): Active | IC50 [30]: 0.87 nM | Activity (Mus musculus [31]): Active | AUC(0-inf) [32]: 651 ng·h/mL | AUC/dose [33]: 734 ng·h/mL per mg/kg | Cmax [34]: 1220 ng/mL | Activity (Mus musculus [35]): Active
